Here are results for five compounds from US9284368B2, “Substituted pyrazines as cadherin-11 inhibitors” (Georgetown University, priority 2009, dated 2016).

A short description of data set [1]: In vivo acute toxicity (OECD Up-and-Down Procedure). The settings on record: mouse, female Balb/c mice, IP injection, observed for 14 days. On the procedure: Female Balb/c mice, 8-12 weeks old, were obtained from the National Cancer Institute (Bethesda, Md.). A stock solution of 200 mg/ml of Compound 1 was prepared with a 1:1 ratio of DMSO and PEG. The working solution was diluted with PEG. Compound 1 (Sd-133) was administered at a constant volume (0.01 ml/1 g body weight) over the range of doses to be tested by varying the concentration of the dosing preparation according to the OECD Acute Toxicity-Up-and Down Procedure. […] Observations included toxicity onset time, symptoms, duration and the time elapsed for recovery or death. Based on the study, the LD50 of Compound 1 was estimated at 2000 mg/kg.

For another data set, the target named is T1, cadherin-11 (Homo sapiens, UniProt P55287).
T1 construct: Endogenous cadherin-11 expression in MDA-MB-231 breast and PC-3 prostate cancer cells was knocked down; endogenous in cells; host or cells: MDA-MB-231 breast cancer cells (PC-3 partly)
T1 sequence (P55287 54-796): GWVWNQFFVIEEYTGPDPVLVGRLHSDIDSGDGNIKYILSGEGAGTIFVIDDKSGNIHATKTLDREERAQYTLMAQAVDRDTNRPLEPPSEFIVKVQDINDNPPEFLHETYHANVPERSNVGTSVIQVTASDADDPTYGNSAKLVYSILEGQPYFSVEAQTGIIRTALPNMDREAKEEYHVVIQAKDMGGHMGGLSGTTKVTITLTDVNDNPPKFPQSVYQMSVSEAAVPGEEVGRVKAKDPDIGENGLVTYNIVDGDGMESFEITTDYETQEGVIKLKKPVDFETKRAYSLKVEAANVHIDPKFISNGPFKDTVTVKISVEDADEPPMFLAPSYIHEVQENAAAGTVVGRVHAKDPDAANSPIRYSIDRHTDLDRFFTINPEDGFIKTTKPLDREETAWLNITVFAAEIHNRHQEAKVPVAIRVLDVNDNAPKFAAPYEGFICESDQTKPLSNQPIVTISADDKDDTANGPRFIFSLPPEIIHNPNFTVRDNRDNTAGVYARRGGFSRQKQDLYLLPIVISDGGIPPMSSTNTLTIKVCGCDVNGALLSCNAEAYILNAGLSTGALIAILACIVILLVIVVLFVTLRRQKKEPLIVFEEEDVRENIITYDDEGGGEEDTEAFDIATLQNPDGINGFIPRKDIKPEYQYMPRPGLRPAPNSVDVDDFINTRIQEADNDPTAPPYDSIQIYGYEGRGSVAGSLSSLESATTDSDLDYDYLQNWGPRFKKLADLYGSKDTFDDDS
Description: Initial functional screening of in silico hits for block of cadherin-11 function. It is filed as cell-based. The settings on record: in vitro screening of commercially purchased in silico hits. On the procedure: These two pharmacophores were further refined and screened again to maximize solubility and then retested using various in vitro assays. […] Finally, it was also observed that the compound was not cytotoxic up to a 100 μM dosage in vitro, as well as a pilot study in nude mice.
Cadherin-11 association with certain poor prognosis cancers, proliferation of basal-type breast cancer cells, and tumorigenesis in mice make it a viable therapeutic target for these malignancies. […] A computer-based method of structural modeling was used to predict conformations capable of binding these specific hydrophobic pockets. The ectodomain1 (EC1) dimer adhesive interface is formed by exchange of N-terminal β strands between two cadherin-11 molecules. The dimer interface has a large hydrophobic region (unique to type II cadherins) with two conserved tryptophan residues. […] This structure was used to base molecular simulations and produce pharmacophores designed to block one or both of the two adjacent regions (P1 and P2) predicted necessary for cadherin-11 function in cell-cell adhesion. Three in-silico strategies were implemented: 1) generation of flexible receptor conformations, 2) receptor-based dynamic pharmacophore screening and 3) small molecule docking simulations. The 29 most promising candidates identified by in silico screen were subjected to free energy simulations at 100 picosecond intervals, taking into consideration the induced fit effect, which accounts for conformation flexibility both before and after binding/docking simulations. […] These 29 compounds were purchased commercially and tested. Many of the compounds initially screened inhibited cadherin-11 function at 10 μM range, attesting to the in silico screening efficiency. […] The potency of Compound 1 likely stems from its shape and moderate structural flexibility, enabling it to accommodate to and bind tightly within the tryptophan binding pocket. Though this pocket is largely hydrophobic, a network of hydrogen bonds between Compound 1 and R23, H25, P88, S90 confers specificity and rigid binding. […]

Data set [2] has as its system MCF7 breast cancer cells. Description: Proliferation assay. In kind it is cell-based. The settings on record: MCF7 breast cancer cells (expressing E and P-cadherin), 1 μM and 10 μM. On the procedure: (§1) For crystal violet assays, cells were plated in triplicate in 96-well tissue culture dishes at 4 separate densities. Cells were grown in DMEM supplemented with 5% fetal bovine serum for a period of 5 days. Dishes representing growth were stained with crystal violet on Days 1, 3 and 5 after plating, by removing growth medium, staining with 50 μL of crystal violet stain for 10 min, then gently washing in dH2O and allowing to dry overnight. Stained cells were solubilized in 100 μL 50/50 (v/v) 0.1M sodium citrate and ethanol for 15 min, and absorbance was read at 630λ.
(§2) For luminescence, the cells were plated in triplicate in 24-well white-walled tissue culture dishes (Wallac; Waltham, Mass.) and grown in DMEM supplemented with 5% fetal bovine serum for 5 days. On the fifth day, the cells were resuspended in an equal volume of Cell-Titer-Glo Luminescence Reagent (Promega; Madison, Wis.), which measures ATP, and incubated for 20 min at room temperature. The assay was measured using luminescence.
(§3) Cells were plated in triplicate at four separate densities and grown in DMEM with 5% FBS for five days. Cells were stained with crystal violet on days 1, 3, and 5 after plating, as described in Example 5. Absorbance was read at 630λ using a BioRad Ultramark Microplate Imaging System with Microplate Manager 5.1 software. […]

Data set [3] concerns MDA-MB-435 melanoma cells. As to the kind of experiment: Proliferation assay. It is filed as cell-based. The settings on record: MDA-MB-435 melanoma cells (expressing N-cadherin), 1 μM and 10 μM. On the procedure:
as §1, §2, §3

The test system of data set [4] is MDA-MB-231 breast cancer cells. As to the kind of experiment: Proliferation assay (crystal violet / luminescence). In kind it is cell-based. The settings on record: MDA-MB-231 cells, 100 nM. Here is the method:
as §1, §2, §3

In data set [5] the test system is MDA-MB-231 breast cancer cells. Description: Soft agar colony growth assay. The settings on record: MDA-MB-231 cells, 100 nM. In kind it is cell-based. On the procedure:
To further characterize proliferative ability of cancer cells lacking cadherin-11, anchorage independent growth was studied in the stable cell lines. 6-well tissue culture dishes were coated with 1.2 mL 0.6% Bacto-agar (Difco; Franklin Lakes, N.J.) in DMEM supplemented with 5% fetal bovine serum. Once set, the cells were plated in triplicate in 0.3% agar (15,000/1 mL in each well) and layered gently on top of the coated agar. The plates were incubated for 10 days to 2 weeks prior to reading using a colony counter (Omnicon; Manassas, Va.) and visualized using a SMZ-1500 stereoscope (Nikon; Tokyo, JP).
For luminescence, the cells were plated in triplicate in 24-well white-walled tissue culture dishes (Wallac; Waltham, Mass.) as described above. On the final day, cells were resuspended in an equal volume of Cell-Titer-Glo Luminescence Reagent (Promega; Madison, Wis.), which measures ATP, and incubated for 20 min at room temperature. The assay was measured using luminescence.
Cells (5,000) were plated in 0.3% agar layered on top of 0.6% agar in 35-mm^2 plates. After 2 weeks, the colonies were counted in an Omnicon 3600 automated colony counter (BioLogics, Inc.; Manassas, Va.) and visualized using a SMZ-1500 stereoscope (Nikon; Tokyo, JP). Confirmation assays were completed in 24-well dishes and analyzed using Cell-Titer-Glo Reagent (see proliferation assays).

The next data set has as its system nude mice. As to the kind of experiment: Pilot toxicity study in nude mice. It is filed as in vivo.
Data set [6] deals with PC-3 prostate cancer cells. Description: Growth phenotypes in PC-3 cells. In kind it is cell-based.
For data set [7], the system named is MCF7 breast cancer cells. As to the kind of experiment: Matrigel outgrowth (invasion) assay. It is filed as cell-based. The settings on record: MCF7 breast cancer cells (expressing E and P-cadherin), 1 μM and 10 μM. On the procedure:
(§4) Upon finding significant differences in growth and migration in cancer cells with reduced cadherin-11 expression, invasive capability of the stable cell lines was explored in a 3-dimensional matrix. The cells were plated in duplicate in a 12-well glass-bottom dish (MatTek; Ashland, Mass.) coated with 150 μL of Matrigel (BD Biosciences; San Jose, Calif.). The cells (5,000 cells/100 μl medium) were gently plated on top of the Matrigel layer directly and incubated 30 min at 37° C. Growth medium (1 mL) was gently added to each well, and growth was visualized using a 5× objective on an AH2 Vanox inverted microscope (Olympus; Tokyo, JP) equipped with a CCD camera.
(§5) Cells (5,000 cells/100 μl medium) were plated atop 150 μL layer of Matrigel (BD Biosciences; San Jose, Calif.) in duplicate in 12-well glass-bottom dishes (MatTek; Ashland, Mass.) and incubated for 30 minutes at 37° C. Growth medium (1 mL) was gently added to each well. Growth was visualized using a 5× objective on AH2 Vanox inverted microscope (Olympus; Tokyo, JP).

The subject of data set [8] is MDA-MB-435 melanoma cells. As to the kind of experiment: Matrigel outgrowth (invasion) assay. The settings on record: MDA-MB-435 melanoma cells (expressing N-cadherin), 1 μM and 10 μM. It is filed as cell-based. Here is the method: as §4, §5
Data set [9] relates to MDA-MB-231 breast cancer cells. Description: Matrigel outgrowth (invasion) assay. It is filed as cell-based. The settings on record: MDA-MB-231 cells, 100 nM. On the procedure: as §4, §5
The nature of another data set: Cytotoxicity in vitro. It is filed as cell-based. The settings on record: up to a 100 μM dosage in vitro.
Data set [10] concerns L-cells with stably-transfected cadherin-11. As to the kind of experiment: Cell aggregation assay, cadherin-11 transfected L-cells. The settings on record: cadherin-11 L-cells, shaken one hour at 100 rpm. In kind it is cell-based. Here is the method:
(§6) Cell aggregation assays were performed on L-cells with stably-transfected empty vector or cadherin-11. The cells were seeded and grown overnight, trypsinized with additional EDTA, resuspended in DMEM with 20% FBS, and counted. The cells were spun down and resuspended in DMEM containing no treatment, 0.5 mM EDTA, 0.25 mM EDTA, 0.1 mM EDTA, or cadherin-11 inhibitors including 1 TM of Compound 1 (Sd-133), 1 TM of Compound 2 (Sd-133A), 1 TM of Compound 3 (Sd-133B), 1 TM of Compound 11 (Sd-12), 1 TM of Compound 12 (Sd-48), 1 TM of Compound 17 (Sd-20), 1 TM of Compound 18 (Sd-51), 1 TM of Compound 19 (Sd-22), or 1 TM of Compound 20 (Sd-23). The cells were allowed to recover for one hour and were then put into uncoated 12 well plates and shaken for one hour at 100 rpm at 2.25×10^5 cells/mL. The cells were then counted using Microsizer Coulter Counter (Beckman Coulter, Inc; Brea, Calif.). Counts over 20 uM in length were considered aggregates, while counts below 20 uM were considered as single cells. The counts were confirmed by manual counting.

The subject of data set [11] is L-cells with stably-transfected empty vector. As to the kind of experiment: Cell aggregation assay, empty vector L-cells. The settings on record: shaken one hour at 100 rpm. It is filed as cell-based. On the procedure:
as §6

The LD50 is the dose at which mortality reaches 50%. A lower LD50 goes with a more toxic substance.

SMILES strings stand for the structures. “Also recorded” adds a separate entry of the source.

`Oc1ccc(-c2cccnc2-c2ccccc2)cc1` [Compound 1]: the LD50 at 14 days in [1] is 2000 mg/kg. On cadherin-11, the “concentration range at which cadherin-11 is functionally blocked (effective range)” value (“concentration range” for short) is reported as “nanomolar ranges”. For the same compound, the proliferation entry (with MCF7 breast cancer cells [2]; in data set [3]) was “fails to block; also recorded: failed to alter” in each case. For the same compound, in [4], the cell proliferation result is recorded as “significantly blocked; also recorded: significantly inhibited”. In data set [5], the colony growth entry is on record as “significantly blocked; also recorded: significantly inhibited”. Further, the cytotoxicity entry in the data set on nude mice and in “Cytotoxicity in vitro” was “not cytotoxic” in each case. Also, the growth phenotypes entry in [6] is given as “partially inhibited”. Moreover, the values for the invasion result (in the data set with MCF7 breast cancer cells [7]; in data set [8]; in data set [9]) were “fails to block; also recorded: failed to alter”, “fails to block; also recorded: failed to alter” and “significantly blocked; also recorded: significantly inhibited”, respectively.

Turning to `Oc1ccc(-c2nc3ccccc3nc2-c2cccc(Cl)c2)cc1` [Compound 2], the aggregate formation result in data set [10] is given as “decrease”; in data set [11], “remained stable”.

As for `Oc1ccc(-c2nc3ccccc3nc2-c2ccccc2)cc1` [Compound 3], the aggregate formation entry in data set [10] is given as “decrease”; in data set [11], “remained stable”.

`O=C1c2ccccc2C(=O)c2c1oc1ccc3ccccc3c21` [Compound 9]: the “concentration range” value on cadherin-11 is “nanomolar ranges”.

Turning to `Oc1ccc2c(c1)c1ccccc1c1ncccc21` [Compound 10], the “concentration range” value at cadherin-11 is on record as “nanomolar ranges”.
